Consider 3 molecules from patent US12083130B2, “Combination hormone formulations and therapies” (Caren Pharmaceuticals, Inc., priority 2019, dated 2024).

One series relates to hypogonadal men. The settings on record: 12-year study, hypogonadal men who received T; […] for men who did not; cited from earlier work.
A further series has as its system Aβ levels. The settings on record: mice, cyclic administration, high levels 10 days in a row every 30 days; cited from earlier work.
The subject of series [1] is cortical rat neurons intoxicated with human AβO 1-42. Put plainly: Example 10: neuroprotection of cortical neurons intoxicated with human AβO 1-42. Format: cell-based. The note with it: BDNF 50 ng/ml; human AβO 1-42 10 μM, 24 h. The text has this: This is a prophetic example. The 40 and 42 amino acid forms are the most abundant B-amyloid (Aβ) peptide forms found in AD brain senile plaques, as disclosed herein. However, the number of senile plaques in a particular region of the AD brain correlates poorly with the local extent of neuron death or synaptic loss, or with cognitive impairment (Sisodia et al., 1990). Studies have shown a robust correlation between the soluble human Aβ 1-42 oligomer (AβO) levels and the extent of synaptic loss and severity of cognitive impairment (Sakono et al., 2010). This example investigates the neuroprotective effect of the composition prepared as described in Example 2 on cortical neurons incubated for 24 hours in the presence of AβO, an in vitro model of AD (Callizot et al., 2013). Brain-derived neurotrophic factor (BDNF) is used as a positive control in this study.
Cortical rat neurons are cultured at +37° C. in a humidified air/CO2 (95/5) atmosphere. After 11 days of culture, cortical neurons are intoxicated with human AβO 1-42 at 10 μM for 24 hrs. […]
The total number of cortical neurons that survive after 24 h incubation are counted to determine the end point evaluation. […]

`C[C@]12CC[C@H]3[C@@H](CCC4=CC(=O)CC[C@@]43C)[C@@H]1CC[C@@H]2O` [T, testosterone]: the “rate of prostate cancer” value in the series with hypogonadal men is reported as 2.7%.

Turning to `CC(=O)[C@H]1CC[C@H]2[C@@H]3CCC4=CC(=O)CC[C@]4(C)[C@H]3CC[C@]12C` [progesterone], the Aβ levels entry with Aβ levels is given as “decreased Aβ levels”.

B1: BDNF: Brain-derived neurotrophic factor, positive control (protein, UniProt P23560 19-247, looked up)
Neurotrophic factor BDNF …: APMKEANIRGQGGLAYPGVRTHGTLESVNGPKAGSRGLTSLADTFEHVIEELLDEDQKVRPNEENNKDADLYTSRVMLSSQVPLEPPLLFLLEEYKNYLDAANMSMRVRRHSDPARRGELSVCDSISEWVTAADKKTAVDMSGGTVTVLEKVPVSKGQLKQYFYETKCNPMGYTKEGCRGIDKRHWNSQCRTTQSYVRALTMDSKKRIGWRFIRIDTSCVCTLTIKRGR
In the case of B1, the “cell death resulting from AβO” value in series [1] is recorded as “inhibits cell death resulting from AβO”.
